Measured values reported in patent US20080269162A1, “Novel Medicaments for Anti-Retroviral Treatments” (priority 2006, published 2008).
Where “and” joins values, the source holds several entries; their conditions need not be identical. Equal entries are not always repeated.

Legend:
NDK virus = assay: Number of syncitia in MT4 cell culture infected by NDK virus; assay type: cell-based, HIV; parameters: key to Number of Syncitia in the Culture (wells), J3 / Number of Syncitia in the Culture (wells), J4 / Number of Syncitia in the Culture (wells), J5 / Number of Syncitia in the Culture (wells), J6: the absence of syncitia is indicated by a minus (−) sign; the (+), +, ++, ++T signs indicate an increasing number of syncitia in each well; the (+), +, ++, ++T signs indicate an increasing number of syncitia in each well; the (+), +, ++, ++T signs indicate an increasing number of syncitia in each well; the (+), +, ++, ++T signs indicate an increasing number of syncitia in each well; The indication “T” indicates the death of the cells; conditions: 10 μg/mL; for Number of Syncitia in the Culture (wells), J3: day 3; for Number of Syncitia in the Culture (wells), J4: day 4; for Number of Syncitia in the Culture (wells), J5: day 5; for Number of Syncitia in the Culture (wells), J6: day 6
Method: Then infection of the cells was carried out by adding to each well, with the exception of those wells being used as control cells, 50 μL of previously titrated virus dilution.
After an additional hour of incubation, the plate was centrifuged and the supernatant containing the residual virus was discarded.
After 3 days of culture, the cells were diluted to half and the syncitia were observed using the inverse microscope from day 3 to day 7 after having been placed in suspension.
In the third case, the MT4 cell culture was preincubated for one hour at 37° C., then the cells were infected, the whole was subjected to incubation for one hour at 37° C., then to centrifugation with the elimination of the supernatant containing the virus that had not penetrated into the cells.
In each of the four types of experiments that have just been described, and as previously indicated, the cells were diluted to half after three days of culture and then the syncitia were observed using the inverted microscope from day 3 to day 7.
In the experiments described in greater detail hereinafter, the absence of syncitia is indicated by a minus (−) sign and the (+), +, ++, ++T signs indicate an increasing number of syncitia in each well.
The indication “T” indicates the death of the cells.

RT of the UG92029 virus = assay: Direct inhibitory action on RT of the UG92029 virus; assay type: biochemical, HIV; conditions: viral concentration corresponding to RT activity of 220,000 dpm, FIG. 7
Excerpt: (§1) In order to perform these measurements, the method described in detail hereinbefore was followed (Example 2).

RT of the PIC CH virus = assay: Direct inhibitory action on RT of the PIC CH virus; assay type: biochemical, HIV; conditions: viral concentration corresponding to RT activity of 105,000 dpm, FIG. 8
Excerpt: as §1

RT of the NDK virus = molecular target: T1, RT of the NDK virus (Human immunodeficiency virus type 1 group M subtype D, UniProt P18802); assay: Direct inhibitory action on RT of the NDK virus; assay type: biochemical, HIV; conditions: viral concentration corresponding to RT activity of 81,000 dpm, FIG. 9
T1 construct: host or cells: virus preparation (native virion RT)
Excerpt: as §1

CEM cells = assay: In vitro cytotoxicity, number of CEM cells
[1] = Continuous, before, during and after infection

Dextran sulphate
Number of Syncitia in the Culture (wells), J3 (NDK virus; After infection): −
Number of Syncitia in the Culture (wells), J4 (NDK virus; After infection): − and +
Number of Syncitia in the Culture (wells), J5 (NDK virus; After infection): − and ++
Number of Syncitia in the Culture (wells), J6 (NDK virus; After infection): − and T
Number of Syncitia in the Culture (wells), J3 (NDK virus; Before infection): −
Number of Syncitia in the Culture (wells), J4 (NDK virus; Before infection): −
Number of Syncitia in the Culture (wells), J5 (NDK virus; Before infection): −
Number of Syncitia in the Culture (wells), J6 (NDK virus; Before infection): −
Number of Syncitia in the Culture (wells), J3 (NDK virus; [1]): −
Number of Syncitia in the Culture (wells), J4 (NDK virus; [1]): +
Number of Syncitia in the Culture (wells), J5 (NDK virus; [1]): ++
Number of Syncitia in the Culture (wells), J6 (NDK virus; [1]): T
Number of Syncitia in the Culture (wells), J3 (NDK virus; During infection): −
Number of Syncitia in the Culture (wells), J4 (NDK virus; During infection): − and (+)
Number of Syncitia in the Culture (wells), J5 (NDK virus; During infection): − and ++
Number of Syncitia in the Culture (wells), J6 (NDK virus; During infection): ++ and T
wells inhibited (NDK virus; cells treated before viral infection): 2 wells out of 2 inhibited
inhibition of RT (RT of the UG92029 virus; 2.5 μg/mL): 6%
inhibition of RT (RT of the UG92029 virus; 3 μg/mL): 8%
inhibition of RT (RT of the PIC CH virus; 0.6 μg/mL): does not produce any inhibition at all
inhibition of RT (RT of the PIC CH virus; 0.8 μg/mL): still does not induce any inhibition
inhibition of RT (RT of the NDK virus; 0.6 μg/mL): 11%
inhibition of RT (RT of the NDK virus; 0.8 μg/mL): 18%
Number of CEM cells (CEM cells; Day 1, 125 μg/mL): 500000 mL⁻¹ and 900000 mL⁻¹
Number of CEM cells (CEM cells; Day 1, 250 μg/mL): 500000 mL⁻¹ and 900000 mL⁻¹
Number of CEM cells (CEM cells; Day 1, 1000 μg/mL): 800000 mL⁻¹ and 500000 mL⁻¹
Number of CEM cells (CEM cells; Day 2, 125 μg/mL): 1.5e+06 mL⁻¹ and 1e+06 mL⁻¹
Number of CEM cells (CEM cells; Day 2, 250 μg/mL): 1.3e+06 mL⁻¹ and 1.4e+06 mL⁻¹
Number of CEM cells (CEM cells; Day 2, 500 μg/mL): 1.3e+06 mL⁻¹ and 1.7e+06 mL⁻¹
Number of CEM cells (CEM cells; Day 2, 1000 μg/mL): 1.3e+06 mL⁻¹ and 1.7e+06 mL⁻¹
Number of CEM cells (CEM cells; Day 3, 125 μg/mL): 2.3e+06 mL⁻¹ and 2.1e+06 mL⁻¹
Number of CEM cells (CEM cells; Day 3, 250 μg/mL): 1.9e+06 mL⁻¹
Number of CEM cells (CEM cells; Day 3, 500 μg/mL): 2.1e+06 mL⁻¹ and 1.5e+06 mL⁻¹
Number of CEM cells (CEM cells; Day 3, 1000 μg/mL): 2e+06 mL⁻¹ and 2.7e+06 mL⁻¹
